# How the values were obtained:
# Type in all cases: functional
# Acinetobacter baumannii = test: Antibacterial activity against Acinetobacter baumannii
# Staphylococcus aureus [1] = test: Antibacterial activity against methicillin resistant Staphylococcus aureus
# Klebsiella pneumoniae = test: Antibacterial activity against Klebsiella pneumoniae
# Staphylococcus aureus [2] = test: Antibacterial activity against methicillin resistant Staphylococcus aureus DB57964/04 after 18 to 20 hrs by CLSI based direct colony suspension method
# Staphylococcus aureus [3] = test: Antibacterial activity against methicillin resistant Staphylococcus aureus DM09808R after 18 to 20 hrs by CLSI based direct colony suspension method
# Bacillus cereus = test: Antibacterial activity against Bacillus cereus ATCC 11778 after 18 to 20 hrs by CLSI based direct colony suspension method
# Enterococcus faecalis = test: Antibacterial activity against Enterococcus faecalis ATCC 29212 after 18 to 20 hrs by CLSI based direct colony suspension method
# Staphylococcus aureus [4] = test: Antibacterial activity against methicillin resistant Staphylococcus aureus DM21455 after 18 to 20 hrs by CLSI based direct colony suspension method
# Staphylococcus aureus [5] = test: Antibacterial activity against Staphylococcus aureus ATCC 29213 after 18 to 20 hrs by CLSI based direct colony suspension method
# Staphylococcus aureus [6] = test: Antibacterial activity against Staphylococcus aureus after 10 hrs by broth microdilution assay
# Escherichia coli = test: Antibacterial activity against Escherichia coli after 10 hrs by broth microdilution assay
# Staphylococcus aureus [7] = test: Antibacterial activity against methicillin resistant Staphylococcus aureus clinical isolate
smiles,measurement,setting,value
CCCCCCCC(=O)N(CCCNC(=O)[C@@H](CCCCN)NC(=O)[C@H](N)CCCCN)CCCNC(=O)[C@@H](CCCCN)NC(=O)[C@H](N)CCCCN.O=C(O)C(F)(F)F.O=C(O)C(F)(F)F.O=C(O)C(F)(F)F.O=C(O)C(F)(F)F.O=C(O)C(F)(F)F.O=C(O)C(F)(F)F,MIC,Acinetobacter baumannii,6.3 to 12.5 µg/mL
same,MIC,Staphylococcus aureus [1],6.3 to 12.5 µg/mL
same,MIC,Klebsiella pneumoniae,6.3 to 12.5 µg/mL
COc1c(O)cc2oc3cc(O)c(CC=C(C)C)c(O)c3c(=O)c2c1CC=C(C)C [MANGOSTIN],MIC,Staphylococcus aureus [2],0.78 to 1.56 µg/mL
same,MIC,Staphylococcus aureus [3],0.78 to 1.56 µg/mL
same,MIC,Bacillus cereus,0.78 to 1.56 µg/mL
same,MIC,Enterococcus faecalis,0.78 to 1.56 µg/mL
same,MIC,Staphylococcus aureus [4],0.78 to 1.56 µg/mL
same,MIC,Staphylococcus aureus [5],0.78 to 1.56 µg/mL
CCCCCCCCCCCCNC(=O)C[N+](C)(C)CCCCCC[N+](C)(C)CC(=O)NCCCCCCCCCCCC,MIC,Staphylococcus aureus [6],10 µM
same,MIC,Escherichia coli,13 µM
CCCCCCCCCCCCNC(=O)C[N+](C)(C)C,MIC,Staphylococcus aureus [6],43 µM
same,MIC,Escherichia coli,35 µM
CCCCCCCCCCCCCC(=O)N(CCCNC(=O)[C@H](N)CCCCN)CCCNC(=O)[C@H](N)CCCCN.O=C(O)C(F)(F)F.O=C(O)C(F)(F)F.O=C(O)C(F)(F)F.O=C(O)C(F)(F)F,MIC,Staphylococcus aureus [1],3.1 to 6.3 µg/mL
CCCCCCN(Cc1ccc(-c2ccc(CN(CCCCCC)C(=O)[C@@H](N)CCCCN)cc2)cc1)C(=O)[C@@H](N)CCCCN.O=C(O)C(F)(F)F.O=C(O)C(F)(F)F.O=C(O)C(F)(F)F.O=C(O)C(F)(F)F,MIC,Staphylococcus aureus [1],3.1 µg/mL
same,MIC,Staphylococcus aureus [7],6.2 µg/mL
